# pIC50: −log10 of the molar value.
# Columns and labels:
# [1] = molecular target: pEGFR (Tyr1068) in PC-9 cells (Ex19Del) (Homo sapiens (Human), UniProt P00533, DEL746-750); test: PC-9 pEGFR AlphaLISA assay; format: cell-based; conditions: 4 hours incubation, p-EGFR (Tyr1068) AlphaLISA, read-out: Ext pEGFR_PC-9 Ex19Del IC50
# Procedure, shortened: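 Cells seeded in phenol-free DMEM with 10% FBS adhered overnight at 37° C./5% CO2, then were exposed for 4 hours to a 4-fold, 10-point compound dilution series. After lysis, phospho-EGFR was read by AlphaLISA SureFire Ultra, and IC50 was fitted from percent inhibition versus log concentration.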
# EGFR L858R = EGFR L858R (Homo sapiens (Human), UniProt P00533, L858R); test: Biochemical EGFR inhibition assay, EGFR L858R; conditions: Caliper mobility shift; 1.0 mM ATP or ATP Km; read-out: Enz EGFR_L858R IC50
# EGFR L858R, sequence (P00533 25-1210 L858R): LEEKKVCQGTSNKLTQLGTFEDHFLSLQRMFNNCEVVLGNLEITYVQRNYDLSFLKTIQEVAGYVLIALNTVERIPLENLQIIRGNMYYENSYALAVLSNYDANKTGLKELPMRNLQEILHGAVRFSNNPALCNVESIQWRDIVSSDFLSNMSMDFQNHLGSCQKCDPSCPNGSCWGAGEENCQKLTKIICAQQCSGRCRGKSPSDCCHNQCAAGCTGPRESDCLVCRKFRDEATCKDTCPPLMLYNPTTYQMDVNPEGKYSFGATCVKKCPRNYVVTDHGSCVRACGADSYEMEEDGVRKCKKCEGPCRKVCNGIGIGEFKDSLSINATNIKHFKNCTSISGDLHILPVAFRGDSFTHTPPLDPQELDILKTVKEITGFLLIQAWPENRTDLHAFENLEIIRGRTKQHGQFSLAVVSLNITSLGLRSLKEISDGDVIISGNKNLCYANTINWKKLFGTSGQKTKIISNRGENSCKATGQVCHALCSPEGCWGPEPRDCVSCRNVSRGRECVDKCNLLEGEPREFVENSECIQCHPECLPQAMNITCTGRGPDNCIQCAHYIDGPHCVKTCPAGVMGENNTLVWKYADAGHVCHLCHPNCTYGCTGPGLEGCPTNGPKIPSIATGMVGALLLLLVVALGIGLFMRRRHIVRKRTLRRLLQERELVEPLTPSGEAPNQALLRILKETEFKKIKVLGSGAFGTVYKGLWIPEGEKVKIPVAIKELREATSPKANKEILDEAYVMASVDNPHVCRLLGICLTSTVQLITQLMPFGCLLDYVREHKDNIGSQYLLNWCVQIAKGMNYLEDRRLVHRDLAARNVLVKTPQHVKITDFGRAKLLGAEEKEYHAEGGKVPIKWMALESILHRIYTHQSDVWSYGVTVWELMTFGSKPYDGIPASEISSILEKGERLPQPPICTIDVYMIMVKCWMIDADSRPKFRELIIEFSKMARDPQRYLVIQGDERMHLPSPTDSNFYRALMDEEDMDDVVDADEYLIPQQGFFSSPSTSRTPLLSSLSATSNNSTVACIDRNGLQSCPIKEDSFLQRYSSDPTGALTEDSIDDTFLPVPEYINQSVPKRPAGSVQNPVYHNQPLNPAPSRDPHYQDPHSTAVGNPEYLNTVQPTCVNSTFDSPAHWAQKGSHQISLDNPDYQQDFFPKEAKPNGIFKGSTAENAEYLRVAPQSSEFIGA
# EGFR (d746-750) = EGFR (d746-750) (Homo sapiens (Human), UniProt P00533, DEL746-750); test: Biochemical EGFR inhibition assay, EGFR (d746-750); conditions: Caliper mobility shift; 1.0 mM ATP or ATP Km; read-out: Enz EGFR_Exon19-del746-750 IC50
# EGFR (d746-750), sequence (P00533 other isoform, or with tags, fused parts or gaps del 1-694/del 746-750 limits assumed): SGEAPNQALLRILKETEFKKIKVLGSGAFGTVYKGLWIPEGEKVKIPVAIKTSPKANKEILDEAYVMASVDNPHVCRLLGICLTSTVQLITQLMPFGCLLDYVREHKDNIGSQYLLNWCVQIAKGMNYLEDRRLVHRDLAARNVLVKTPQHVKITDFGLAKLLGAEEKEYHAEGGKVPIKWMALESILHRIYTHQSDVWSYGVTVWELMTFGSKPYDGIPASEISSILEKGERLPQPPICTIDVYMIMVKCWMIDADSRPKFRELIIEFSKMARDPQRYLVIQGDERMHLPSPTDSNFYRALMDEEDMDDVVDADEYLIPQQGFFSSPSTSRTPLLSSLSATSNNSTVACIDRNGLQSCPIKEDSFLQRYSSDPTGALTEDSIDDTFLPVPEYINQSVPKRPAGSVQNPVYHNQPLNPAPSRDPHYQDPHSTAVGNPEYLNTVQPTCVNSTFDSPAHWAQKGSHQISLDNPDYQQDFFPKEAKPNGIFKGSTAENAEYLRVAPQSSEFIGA
# pEGFR (Tyr1068) in PC-9 cells (Ex19Del), sequence (P00533 other isoform, or with tags, fused parts or gaps del 746-750): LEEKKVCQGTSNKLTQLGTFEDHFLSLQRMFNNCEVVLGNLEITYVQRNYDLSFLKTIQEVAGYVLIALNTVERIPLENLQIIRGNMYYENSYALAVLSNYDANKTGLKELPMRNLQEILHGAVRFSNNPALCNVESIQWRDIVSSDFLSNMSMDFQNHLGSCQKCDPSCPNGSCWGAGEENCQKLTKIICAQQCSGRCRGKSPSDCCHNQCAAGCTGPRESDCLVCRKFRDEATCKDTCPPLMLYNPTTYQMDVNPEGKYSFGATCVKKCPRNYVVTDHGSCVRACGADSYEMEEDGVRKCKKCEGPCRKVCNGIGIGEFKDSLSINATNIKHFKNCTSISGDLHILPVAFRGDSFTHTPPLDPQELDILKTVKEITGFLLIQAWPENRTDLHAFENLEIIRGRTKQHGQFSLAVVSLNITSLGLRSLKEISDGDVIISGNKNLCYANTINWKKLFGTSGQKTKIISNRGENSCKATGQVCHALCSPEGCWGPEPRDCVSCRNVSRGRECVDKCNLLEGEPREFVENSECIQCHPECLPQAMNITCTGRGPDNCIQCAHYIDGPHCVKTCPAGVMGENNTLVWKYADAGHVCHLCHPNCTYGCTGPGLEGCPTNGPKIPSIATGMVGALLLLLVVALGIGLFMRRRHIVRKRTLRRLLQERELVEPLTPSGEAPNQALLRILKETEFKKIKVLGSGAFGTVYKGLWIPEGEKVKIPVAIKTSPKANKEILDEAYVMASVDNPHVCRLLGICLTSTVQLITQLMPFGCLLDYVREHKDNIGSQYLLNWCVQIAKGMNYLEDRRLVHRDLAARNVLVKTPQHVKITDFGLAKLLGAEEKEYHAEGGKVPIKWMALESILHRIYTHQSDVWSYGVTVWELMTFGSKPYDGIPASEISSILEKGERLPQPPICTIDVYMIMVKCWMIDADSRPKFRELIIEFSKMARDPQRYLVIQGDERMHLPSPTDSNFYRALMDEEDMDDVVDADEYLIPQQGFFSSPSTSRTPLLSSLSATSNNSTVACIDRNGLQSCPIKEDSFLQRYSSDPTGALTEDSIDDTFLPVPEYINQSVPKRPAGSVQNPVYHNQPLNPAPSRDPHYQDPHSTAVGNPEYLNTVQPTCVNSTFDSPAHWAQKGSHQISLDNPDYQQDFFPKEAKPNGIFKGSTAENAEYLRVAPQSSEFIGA
Structure (SMILES),pIC50 [1],pIC50 (EGFR L858R),pIC50 (EGFR (d746-750))
"COc1cc2ncnc(-c3cn(C)nc3-c3ccccc3F)c2cc1NC(=O)[C@]12C[C@H]1CN(C)C2 (single isomer, unassigned) [Example 255, (1R,5R)—N-(4-(3-(2-fluorophenyl)-1-methyl-1H-pyrazol-4-yl)-7-methoxyquinazolin-6-yl)-3-methyl-3-azabicyclo[3.1.0]hexane-1-carboxamide or (1S,5S)—N-(4-(3-(2-fluorophenyl)-1-methyl-1H-pyrazol-4-yl)-7-methoxyquinazolin-6-yl)-3-methyl-3-azabicyclo[3.1.0]hexane-1-carboxamide]",8.42,8.57,8.74
"CCOc1cc2ncnc(-c3cn(C4CC4)nc3-c3ccccc3)c2cc1[C@H](C)O (single isomer, unassigned) [Example 112, (S)-1-(4-(1-cyclopropyl-3-phenyl-1H-pyrazol-4-yl)-7-ethoxyquinazolin-6-yl)ethan-1-ol or (R)-1-(4-(1-cyclopropyl-3-phenyl-1H-pyrazol-4-yl)-7-ethoxyquinazolin-6-yl)ethan-1-ol]",8.42,8.72,8.92
"COc1cc2ncnc(-c3cn(C)nc3-c3ccccc3)c2cc1OC(=O)N1CCN(C)C[C@@H]1C (stereo in doubt) [Example 59, 7-methoxy-4-(1-methyl-3-phenyl-1H-pyrazol-4-yl)quinazolin-6-yl(S)-2,4-dimethylpiperazine-1-carboxylate or 7-methoxy-4-(1-methyl-3-phenyl-1H-pyrazol-4-yl)quinazolin-6-yl (R)-2,4-dimethylpiperazine-1-carboxylate]",8.38,8.48,8.70
"CCOc1cc2ncnc(-c3cn(CC)nc3-c3ccccc3)c2cc1CO [Example 124, (7-ethoxy-4-(1-ethyl-3-phenyl-1H-pyrazol-4-yl)quinazolin-6-yl)methanol]",8.52,8.89,9.05
"COc1cc2ncnc(-c3cn(C)nc3-c3ccccc3)c2cc1NC(=O)[C@]12COC[C@H]1C2 (single isomer, unassigned) [Example 260, (1S,5S)—N-(7-methoxy-4-(1-methyl-3-phenyl-1H-pyrazol-4-yl)quinazolin-6-yl)-5-methyl-3-oxabicyclo[3.1.0]hexane-1-carboxamide or (1R,5R)—N-(7-methoxy-4-(1-methyl-3-phenyl-1H-pyrazol-4-yl)quinazolin-6-yl)-3-oxabicyclo[3.1.0]hexane-1-carboxamide]",8.49,8.17,8.92
"COc1cc2ncnc(-c3cn(C)nc3-c3ccccc3)c2cc1C(O)C1CC1 (stereo not drawn) [Example 128, cyclopropyl (7-methoxy-4-(1-methyl-3-phenyl-1H-pyrazol-4-yl)quinazolin-6-yl)methanol]",7.90,8.44,8.60
"COc1cc2ncnc(-c3cn(C)nc3-c3ccccc3)c2cc1NC(=O)C1(C(F)(F)F)CC1 [Example 349, N-(7-methoxy-4-(1-methyl-3-phenyl-1H-pyrazol-4-yl)quinazolin-6-yl)-1-(trifluoromethyl)cyclopropane-1-carboxamide]",8.46,8.70,9.00
"COc1cc2ncnc(-c3cn(C)nc3-c3ccccc3)c2cc1NC(=O)c1sc(C2CC2)nc1C [Example 354, 2-cyclopropyl-N-(7-methoxy-4-(1-methyl-3-phenyl-1H-pyrazol-4-yl)quinazolin-6-yl)-4-methylthiazole-5-carboxamide]",9.10,8.59,8.92
"COc1cc2ncnc(-c3cn(C)nc3-c3ccccc3)c2cc1N1CCOCC1 [Example 160, 4-(7-methoxy-4-(1-methyl-3-phenyl-1H-pyrazol-4-yl)quinazolin-6-yl)morpholine]",8.08,7.70,8.54
"CCCn1cc(-c2ncnc3cc(OC)c(NC(=O)c4ccc(C5CC5)nc4)cc23)c(-c2ccccc2)n1 [Example 301, 6-cyclopropyl-N-(7-methoxy-4-(3-phenyl-1-propyl-1H-pyrazol-4-yl)quinazolin-6-yl)nicotinamide]",9.10,8.57,8.70

# Reference: patent US20250236608A1, “EGFR INHIBITORS” (Blueprint Medicines Corporation, priority 2022, published 2025)
